Test results taken from ChEMBL document CHEMBL1201862, “PubChem BioAssay data set” (2004).
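Where inhibition never reached the appropriate level, the endpoint shown equals the highest concentration tested. Otherwise, values were interpolated linearly from a five-concentration, 48-hour dose response in 96-well plates. At the GI50, growth is halved.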 Activity calls are given as the source filed them. Cut-off read from the data, not from the text of the source: active = GI50 up to about 1.1 µM and inactive = higher.

Key:
Test in all cases: NCI anticancer screen, dose series, 48 h
LOX IMVI = test system: LOX IMVI
SN12C = test system: SN12C
HOP-92 = test system: HOP-92
CAKI-1 = test system: CAKI-1
SF-268 = test system: SF-268
MOLT-4 = test system: MOLT-4
HCT-116 = test system: HCT-116
U-251 = test system: U-251
HOP-62 = test system: HOP-62
DU-145 = test system: DU-145
M14 = test system: M14
MDA-MB-231 = test system: MDA-MB-231
MDA-MB-435 = test system: MDA-MB-435
COLO 205 = test system: COLO 205
OVCAR-5 = test system: OVCAR-5
HL-60 = test system: HL-60
SF-539 = test system: SF-539
NCI-H460 = test system: NCI-H460
SR = test system: SR
RXF 393 = test system: RXF 393

Row | Structure (SMILES) | GI50 (LOX IMVI) | GI50 (SN12C) | GI50 (HOP-92) | GI50 (CAKI-1) | GI50 (SF-268) | GI50 (MOLT-4) | GI50 (HCT-116) | GI50 (U-251) | GI50 (HOP-62) | GI50 (DU-145) | GI50 (M14) | GI50 (MDA-MB-231) | GI50 (MDA-MB-435) | GI50 (COLO 205) | GI50 (OVCAR-5) | GI50 (HL-60) | GI50 (SF-539) | GI50 (NCI-H460) | GI50 (SR) | GI50 (RXF 393)
1 | CCOC(=O)/C(=N\Nc1ccc(-n2c(C)nc3ccccc3c2=O)cc1)C(C)=O | 32.1 µM (inactive) | > 100 µM (inactive) | 11.9 µM (inactive) | > 100 µM (inactive) | 25.8 µM (inactive) | 13.5 µM (inactive) | 36 µM (inactive) | > 100 µM (inactive) | 40.2 µM (inactive) | 80.2 µM (inactive) | 24.2 µM (inactive) | > 100 µM (inactive) | 17.5 µM (inactive) | 39.9 µM (inactive) | > 100 µM (inactive) | 14 µM (inactive) | 51.8 µM (inactive) | 92.9 µM (inactive) | 33.3 µM (inactive) | 
2 | CCN(C(=S)N[C@H](C(=O)N[C@@H](C)C(=O)OC)C(C)C)c1ccccc1 | 52.6 µM (inactive) | 66.8 µM (inactive) | 51.4 µM (inactive) | > 100 µM (inactive) |  | 25.4 µM (inactive) | 70.8 µM (inactive) | > 100 µM (inactive) | 91.6 µM (inactive) | > 100 µM (inactive) | 53.2 µM (inactive) | > 100 µM (inactive) | 64 µM (inactive) | 59.6 µM (inactive) | > 100 µM (inactive) |  | 28 µM (inactive) | 33.6 µM (inactive) | 18.9 µM (inactive) | 62.1 µM (inactive)
3 | CC(=O)OCC1OC(N2C(c3ccccc3)=CC(c3ccccc3)C(C#N)=C2S)C(OC(C)=O)C(OC(C)=O)C1OC(C)=O (stereo not given) | 4.49 µM (inactive) | 3.56 µM (inactive) | 3.81 µM (inactive) | 3.08 µM (inactive) | 5.33 µM (inactive) | 48.6 µM (inactive) | 5.92 µM (inactive) | 3.57 µM (inactive) | 4.06 µM (inactive) | 26.4 µM (inactive) | 12.6 µM (inactive) | 3.7 µM (inactive) | 4.92 µM (inactive) | 1.89 µM (inactive) | 14.6 µM (inactive) |  | 2.56 µM (inactive) | 5.48 µM (inactive) | 42 µM (inactive) | 3.17 µM (inactive)
4 | CC(=O)c1ccc2c3c1O[C@H]1c4[nH]c5ccccc5c4C[C@@]4(O)[C@@H](C2)N(CC2CC2)CC[C@]314 | 16.9 µM (inactive) | 19.1 µM (inactive) | 14.5 µM (inactive) | 20 µM (inactive) | 13.1 µM (inactive) | 17.1 µM (inactive) | 15.5 µM (inactive) | 12.2 µM (inactive) | 21 µM (inactive) | 20.6 µM (inactive) | 16.9 µM (inactive) | 12.8 µM (inactive) | 18.6 µM (inactive) | 14.9 µM (inactive) | 13.2 µM (inactive) | 16.1 µM (inactive) | 13.6 µM (inactive) | 0.497 µM (active) |  | 13.8 µM (inactive)
5 | CN(C(=O)Cc1cccc(N=C=S)c1)[C@H]1CCCC[C@@H]1N1CCCC1 | 14.5 µM (inactive) | 15.2 µM (inactive) | 13.8 µM (inactive) | 15.4 µM (inactive) | 20 µM (inactive) | 5.24 µM (inactive) | 13 µM (inactive) | 17.1 µM (inactive) | 16.3 µM (inactive) | 14.6 µM (inactive) | 17.8 µM (inactive) | 16.9 µM (inactive) | 13.9 µM (inactive) | 11.8 µM (inactive) | 19.2 µM (inactive) |  |  | 16.7 µM (inactive) | 6.73 µM (inactive) | 12.9 µM (inactive)
6 | Nc1nc(=O)n(C2CC(O)C(CO)O2)c2nc(-c3ccc(-c4ccccc4)cc3)cnc12 (stereo not given) | 38.8 µM (inactive) | 62.7 µM (inactive) | 56.2 µM (inactive) | > 100 µM (inactive) | 30.7 µM (inactive) | 25.9 µM (inactive) | > 100 µM (inactive) | 18.6 µM (inactive) | 27.2 µM (inactive) | > 100 µM (inactive) | > 100 µM (inactive) | 21.9 µM (inactive) | 97.7 µM (inactive) | > 100 µM (inactive) | > 100 µM (inactive) |  | 30 µM (inactive) | > 100 µM (inactive) | 27.7 µM (inactive) | 31.2 µM (inactive)
7 | Cc1cc2c(c(=O)n1C)SCC2 | > 100 µM (inactive) | > 100 µM (inactive) | > 100 µM (inactive) | > 100 µM (inactive) | > 100 µM (inactive) | > 100 µM (inactive) | > 100 µM (inactive) | > 100 µM (inactive) | > 100 µM (inactive) | > 100 µM (inactive) | > 100 µM (inactive) | > 100 µM (inactive) | > 100 µM (inactive) | > 100 µM (inactive) | > 100 µM (inactive) |  |  | > 100 µM (inactive) | > 100 µM (inactive) | > 100 µM (inactive)
8 | CN(CC(=O)O)CC(=O)O | > 100 µM (inactive) | > 100 µM (inactive) | > 100 µM (inactive) | > 100 µM (inactive) | > 100 µM (inactive) | > 100 µM (inactive) | > 100 µM (inactive) | > 100 µM (inactive) | > 100 µM (inactive) | > 100 µM (inactive) | > 100 µM (inactive) | > 100 µM (inactive) | > 100 µM (inactive) | 68.2 µM (inactive) | > 100 µM (inactive) | > 100 µM (inactive) | > 100 µM (inactive) | > 100 µM (inactive) |  | > 100 µM (inactive)
9 | CO[C@H]1SC[C@H](OC(C)=O)[C@H](OC(C)=O)[C@H]1OC(C)=O | > 100 µM (inactive) | > 100 µM (inactive) |  | > 100 µM (inactive) | > 100 µM (inactive) | > 100 µM (inactive) | > 100 µM (inactive) | > 100 µM (inactive) | > 100 µM (inactive) | > 100 µM (inactive) | > 100 µM (inactive) | > 100 µM (inactive) | > 100 µM (inactive) | > 100 µM (inactive) |  | > 100 µM (inactive) | > 100 µM (inactive) | > 100 µM (inactive) | > 100 µM (inactive) | 
10 | S=C(N1CCN(c2cccc(Cl)c2)CC1)N1CCN(c2cccc(Cl)c2)CC1 |  |  |  | 25.2 µM (inactive) | 39.9 µM (inactive) | 16 µM (inactive) | 21.2 µM (inactive) | 87.3 µM (inactive) | 36.8 µM (inactive) | 30.3 µM (inactive) | 53.7 µM (inactive) | 11 µM (inactive) | 82 µM (inactive) | 22 µM (inactive) | 44.1 µM (inactive) |  |  |  | 13.4 µM (inactive) | 36.6 µM (inactive)
11 | COC(=O)C1=Nc2c(C)nn(-c3ccccc3)c2N=C(c2ccccc2)C1 | > 10 µM (inactive) | > 10 µM (inactive) | > 10 µM (inactive) | > 10 µM (inactive) | > 10 µM (inactive) | > 10 µM (inactive) | > 10 µM (inactive) | > 10 µM (inactive) | > 10 µM (inactive) | > 10 µM (inactive) | > 10 µM (inactive) | > 10 µM (inactive) | > 10 µM (inactive) | > 10 µM (inactive) | 0.001 µM (active) | > 10 µM (inactive) | > 10 µM (inactive) |  | > 10 µM (inactive) | 
12 | N#Cc1c(-c2ccccc2)cc(Nc2ccc(Cl)cc2)n2c1nc1ccccc12 | 3.75 µM (inactive) | 2.28 µM (inactive) | 0.397 µM (active) | 3.59 µM (inactive) | 3.71 µM (inactive) | 2.34 µM (inactive) | 1.96 µM (inactive) | 2.49 µM (inactive) | 3.67 µM (inactive) | 3.45 µM (inactive) | 4.23 µM (inactive) | 3.27 µM (inactive) | 2.99 µM (inactive) | 1.74 µM (inactive) | 3.9 µM (inactive) |  | 4.39 µM (inactive) | 1.67 µM (inactive) | 2.73 µM (inactive) | 4.35 µM (inactive)
13 | CCOC(=O)c1c(N)nn2c1cc1cccccc12 | 25.1 µM (inactive) | 32.9 µM (inactive) | 33.5 µM (inactive) | 27.9 µM (inactive) | 24.5 µM (inactive) | 25.7 µM (inactive) | 33.5 µM (inactive) | 24 µM (inactive) | 29.8 µM (inactive) | 32.1 µM (inactive) | 42.1 µM (inactive) | 43 µM (inactive) | 31.8 µM (inactive) | 31.9 µM (inactive) | 59.8 µM (inactive) | 32.5 µM (inactive) | 51.5 µM (inactive) | 20.1 µM (inactive) |  | 6.14 µM (inactive)
14 | C/C=C\C(CC(=O)NCC(=O)c1c[nH]c2ccccc12)CC(=O)OC (stereo not given) |  |  | > 100 µM (inactive) | > 100 µM (inactive) | > 100 µM (inactive) | > 100 µM (inactive) | > 100 µM (inactive) | > 100 µM (inactive) | > 100 µM (inactive) | > 100 µM (inactive) | > 100 µM (inactive) | > 100 µM (inactive) | > 100 µM (inactive) | > 100 µM (inactive) | > 100 µM (inactive) |  |  | > 100 µM (inactive) | > 100 µM (inactive) | > 100 µM (inactive)
15 | Cc1cc(=O)oc2c(C)c3oc(CBr)cc3cc12 | 15.3 µM (inactive) | 19.5 µM (inactive) |  | 17.5 µM (inactive) | 19.5 µM (inactive) | 14.3 µM (inactive) | 18.5 µM (inactive) | 19.8 µM (inactive) | 16.2 µM (inactive) | 33.6 µM (inactive) | 18.2 µM (inactive) | 29.4 µM (inactive) | 18.2 µM (inactive) | 18.4 µM (inactive) | 16.8 µM (inactive) | 18.3 µM (inactive) | 20.9 µM (inactive) | 17.2 µM (inactive) | 33 µM (inactive) | 
